From patent publication US11850243B2, “Dihydropyridine compositions and methods for treating neurological disorders” (Cavalon Therapeutics, Inc., priority 2021, dated 2023)

Columns and labels:
[1] = test system: SNc DA neurons; conditions: chronic treatment in vivo, cited from earlier work
[2] = population pharmacokinetic modeling of plasma isradipine in STEADY-PD III by tertile groups; conditions: IR 5 mg twice daily; for CL/F: steady state; for Cave,ss: based on AUC24
[3] = test system: dopaminergic neurons in the striatum and substantia nigra; conditions: 6-hydroxydopamine mouse model, cited from earlier work
[4] = biological target: Cav1.3 (Homo sapiens, UniProt Q01668); conditions: in vitro; read-out: IC50 for inhibition of calcium currents through Cav1.3 (converted); cited from earlier work
Cav1.3, sequence (Q01668 whole entry): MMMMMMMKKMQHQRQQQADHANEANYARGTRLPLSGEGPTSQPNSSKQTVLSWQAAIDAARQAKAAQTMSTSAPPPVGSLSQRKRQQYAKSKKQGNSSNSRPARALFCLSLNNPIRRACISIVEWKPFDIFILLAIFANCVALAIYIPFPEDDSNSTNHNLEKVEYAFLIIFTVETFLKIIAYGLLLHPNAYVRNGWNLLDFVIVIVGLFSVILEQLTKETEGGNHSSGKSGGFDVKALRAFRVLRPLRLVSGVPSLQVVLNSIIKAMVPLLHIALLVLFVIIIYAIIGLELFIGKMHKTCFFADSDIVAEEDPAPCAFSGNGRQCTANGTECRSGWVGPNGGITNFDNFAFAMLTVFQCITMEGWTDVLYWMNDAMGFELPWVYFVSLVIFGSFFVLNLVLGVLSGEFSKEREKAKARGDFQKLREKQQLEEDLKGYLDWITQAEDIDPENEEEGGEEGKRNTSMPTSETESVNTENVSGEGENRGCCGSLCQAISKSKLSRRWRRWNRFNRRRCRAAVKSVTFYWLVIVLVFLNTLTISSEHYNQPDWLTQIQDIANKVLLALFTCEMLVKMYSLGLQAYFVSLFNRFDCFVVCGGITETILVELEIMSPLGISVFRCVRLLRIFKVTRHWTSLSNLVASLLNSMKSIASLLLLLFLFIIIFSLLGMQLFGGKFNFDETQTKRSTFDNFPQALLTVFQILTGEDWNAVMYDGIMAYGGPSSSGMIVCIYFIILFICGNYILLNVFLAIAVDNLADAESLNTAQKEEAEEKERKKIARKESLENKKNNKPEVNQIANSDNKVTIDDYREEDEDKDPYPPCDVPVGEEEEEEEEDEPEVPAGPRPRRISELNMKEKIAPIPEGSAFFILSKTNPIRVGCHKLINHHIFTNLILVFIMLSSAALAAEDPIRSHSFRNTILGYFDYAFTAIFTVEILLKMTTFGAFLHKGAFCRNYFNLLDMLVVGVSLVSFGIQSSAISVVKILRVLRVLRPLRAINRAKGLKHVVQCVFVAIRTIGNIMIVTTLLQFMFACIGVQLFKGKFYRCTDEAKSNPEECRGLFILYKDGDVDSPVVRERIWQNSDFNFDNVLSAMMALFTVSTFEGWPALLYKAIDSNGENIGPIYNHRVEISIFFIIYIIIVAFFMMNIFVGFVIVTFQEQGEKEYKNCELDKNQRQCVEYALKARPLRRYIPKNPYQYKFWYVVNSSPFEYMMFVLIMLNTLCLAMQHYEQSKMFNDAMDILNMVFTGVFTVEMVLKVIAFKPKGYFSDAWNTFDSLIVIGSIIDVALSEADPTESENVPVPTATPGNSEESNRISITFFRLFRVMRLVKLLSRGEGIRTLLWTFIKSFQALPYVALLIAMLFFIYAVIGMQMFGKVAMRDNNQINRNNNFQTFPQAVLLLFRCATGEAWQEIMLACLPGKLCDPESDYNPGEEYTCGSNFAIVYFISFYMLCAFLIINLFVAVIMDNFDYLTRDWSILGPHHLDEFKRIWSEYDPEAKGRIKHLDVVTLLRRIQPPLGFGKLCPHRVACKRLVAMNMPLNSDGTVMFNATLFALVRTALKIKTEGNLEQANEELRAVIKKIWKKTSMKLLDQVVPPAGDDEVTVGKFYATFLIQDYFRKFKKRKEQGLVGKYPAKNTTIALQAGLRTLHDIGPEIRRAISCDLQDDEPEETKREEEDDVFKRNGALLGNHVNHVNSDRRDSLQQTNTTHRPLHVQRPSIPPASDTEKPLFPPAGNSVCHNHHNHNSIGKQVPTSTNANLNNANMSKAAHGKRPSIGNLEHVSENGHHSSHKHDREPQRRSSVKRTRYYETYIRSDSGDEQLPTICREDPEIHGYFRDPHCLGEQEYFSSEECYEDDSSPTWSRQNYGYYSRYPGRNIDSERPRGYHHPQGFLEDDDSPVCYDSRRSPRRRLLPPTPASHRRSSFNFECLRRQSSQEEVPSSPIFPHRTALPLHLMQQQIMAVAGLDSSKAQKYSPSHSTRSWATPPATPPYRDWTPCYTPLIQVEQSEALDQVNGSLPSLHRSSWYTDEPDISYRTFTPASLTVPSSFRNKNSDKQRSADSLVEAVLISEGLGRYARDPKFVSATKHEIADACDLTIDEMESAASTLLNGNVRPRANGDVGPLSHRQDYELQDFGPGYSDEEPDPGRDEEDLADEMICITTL
Cav1.3, sequence (P54284 whole entry partner): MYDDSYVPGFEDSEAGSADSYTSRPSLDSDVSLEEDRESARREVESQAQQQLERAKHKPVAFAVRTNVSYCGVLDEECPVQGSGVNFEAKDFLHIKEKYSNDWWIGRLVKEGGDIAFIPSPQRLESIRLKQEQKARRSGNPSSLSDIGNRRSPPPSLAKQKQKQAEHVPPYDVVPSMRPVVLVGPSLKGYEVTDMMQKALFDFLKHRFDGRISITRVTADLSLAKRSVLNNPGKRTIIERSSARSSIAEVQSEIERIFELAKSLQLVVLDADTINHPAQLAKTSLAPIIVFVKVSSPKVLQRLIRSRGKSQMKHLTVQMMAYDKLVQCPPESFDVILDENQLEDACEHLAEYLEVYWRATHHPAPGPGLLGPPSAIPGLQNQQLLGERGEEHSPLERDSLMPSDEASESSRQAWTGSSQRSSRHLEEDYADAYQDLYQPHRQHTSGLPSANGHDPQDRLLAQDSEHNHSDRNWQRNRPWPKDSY
Cav1.3, sequence (P54289 25-946 partner limits assumed): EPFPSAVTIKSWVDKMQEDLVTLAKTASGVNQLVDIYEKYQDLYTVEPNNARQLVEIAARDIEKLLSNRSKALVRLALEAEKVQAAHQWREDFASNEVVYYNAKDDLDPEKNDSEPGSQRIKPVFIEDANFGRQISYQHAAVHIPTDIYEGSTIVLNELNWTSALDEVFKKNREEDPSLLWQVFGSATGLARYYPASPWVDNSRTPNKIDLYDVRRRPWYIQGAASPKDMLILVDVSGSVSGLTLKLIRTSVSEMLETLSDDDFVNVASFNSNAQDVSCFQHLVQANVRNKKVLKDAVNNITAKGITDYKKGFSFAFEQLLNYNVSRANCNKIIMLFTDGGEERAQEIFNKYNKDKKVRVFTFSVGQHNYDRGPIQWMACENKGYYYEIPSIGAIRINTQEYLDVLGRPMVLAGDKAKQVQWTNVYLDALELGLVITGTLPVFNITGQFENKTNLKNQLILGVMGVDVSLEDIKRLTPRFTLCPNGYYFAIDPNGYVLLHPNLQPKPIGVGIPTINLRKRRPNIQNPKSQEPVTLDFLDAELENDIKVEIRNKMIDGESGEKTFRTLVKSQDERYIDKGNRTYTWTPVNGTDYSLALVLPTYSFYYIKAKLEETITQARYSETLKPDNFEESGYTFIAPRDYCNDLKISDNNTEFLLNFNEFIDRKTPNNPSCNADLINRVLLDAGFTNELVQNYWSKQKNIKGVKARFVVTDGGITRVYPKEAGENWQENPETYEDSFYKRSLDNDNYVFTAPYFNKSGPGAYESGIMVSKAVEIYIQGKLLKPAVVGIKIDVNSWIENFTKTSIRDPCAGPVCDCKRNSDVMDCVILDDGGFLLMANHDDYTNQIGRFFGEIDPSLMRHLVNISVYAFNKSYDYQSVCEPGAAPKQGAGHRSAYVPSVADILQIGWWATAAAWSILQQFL
Cav1.3, sequence (P54289 947-1103 partner limits assumed): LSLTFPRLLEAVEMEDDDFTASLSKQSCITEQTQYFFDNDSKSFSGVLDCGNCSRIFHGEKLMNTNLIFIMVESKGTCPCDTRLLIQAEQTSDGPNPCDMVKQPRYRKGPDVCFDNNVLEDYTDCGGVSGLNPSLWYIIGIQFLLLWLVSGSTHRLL

[5] = test system: Parkinson's disease; assay: STEADY-PD III post-hoc analysis: isradipine exposure versus need for antiparkinson therapy and levodopa equivalent dose; assay type: in vivo, human
[6] = Middle CL/F, Middle AUC24 tertile

## COC(=O)C1=C(C)NC(C)=C(C(=O)OC(C)C)C1c1cccc2nonc12 (centres unmarked) [isradipine]
[1]; SNc DA neurons
  high basal rate of mitophagy: diminished
  mitochondrial oxidant stress: significantly lowered
[1]
  cytosolic [Ca2+] in SNc DA neurons: sustained reduction
  mitochondrial mass in SNc DA neurons: increased
[2]; Fast CL/F, Low AUC24 tertile
  Cmin,ss: 0.56 ng/mL
  CL/F: 477 L/h
  Cave,ss: 0.9 ng/mL
[2]; [6]
  Cmin,ss: 0.86 ng/mL
  CL/F: 296 L/h
  Cave,ss: 1.4 ng/mL
[2]; Slow CL/F, High AUC24 tertile
  Cmin,ss: 1.40 ng/mL
  CL/F: 195 L/h
  Cave,ss: 2.1 ng/mL
[3]; systemic administration, plasma concentration
  plasma concentration required to inhibit neuronal death by 50% (IC50): 5 to 7 ng/mL
[3]; systemic administration
  protection of dopaminergic neurons in the striatum and substantia nigra: concentration-dependent protection
[3]; inflection point in the concentration-response curve
  threshold plasma concentration for protection against neuronal death: 1.5 to 2 ng/mL
[4]
  IC50: ~8.08 nM
[5]; highest AUC24 exposure group vs placebo, 95% CI 0.45-0.97
  HR for time to need therapy: 0.66
[5]; trend per CL/F tertile decrement or AUC24 tertile increment, vs placebo, p for trend=0.02
  decrease in risk of needing antiparkinson treatment: 13%
[5]; trend per tertile, vs placebo, 95% CI:0.78-0.98
  HR for time to first initiation of antiparkinson therapy: 0.87
